Source: patent US20240165112A1, “THERAPY FOR THE TREATMENT OF CANCER” (Bristol-Myers Squibb Company, priority 2022, published 2024)

Experiments:
[1] = system: PAXF1657 organoid, pancreatic cancer; test: 3D clonogenic assay in patient derived organoids; type: cell-based, human
Experimental: (§1) Five tumor cell lines (4T1.2, A549, EMT6, NCI-H460, and HT29) were treated with a range of paclitaxel or 5-FU concentrations in the presence of dimethlylsulfoxide (DMSO), 5 μM Compound 1, or 20 μM Compound 1. Cells were imaged 4 days after treatment and percent confluence was assessed by image quantification. EC50 values for cell confluence were used to assess chemotherapy potency. Eleven patient-derived tumor organoids (MAXFTN449, MAXFTN2990, PAXF1657, PAXF2131, CXF1256, CXF2129, CXF2061, LXFE2478, LXFE690, LXFA677, LXFA644) were seeded in a 3D matrix and treated with a range of paclitaxel, 5-FU, SN38, Gemcitabine, oxaliplatin, and carboplatin concentrations in the presence of DMSO, 5 μM Compound 1, or 20 μM Compound 1. After 8 to 13 days in culture, colonies were stained, imaged, and counted. A dose response curve was generated for chemotherapy alone or chemotherapy in combination with 5 or 20 μM Compound 1. Combination activity was defined as a percentage of the area under the chemotherapy dose response curve (cAUC) for Compound 1 combination groups compared to the cAUC of chemotherapy alone.
(§2) For combination experiments, working stock solutions of all compounds were prepared in DMSO at concentrations of 660-fold the highest test concentration used and stored at −20° C. Platin compounds were prepared freshly on each treatment day. On each day of an experiment, an aliquot of the working stock solutions was used and stored at room temperature prior to and during treatment. First, 1:2 dilutions of 660-fold concentrated working stocks were prepared in DMSO (in case of monotherapy controls), or equal amounts of the compound working stocks were mixed (in case of drug combinations). Then, different dilutions of these 330-fold concentrated solutions were prepared in DMSO to give an 8×2 matrix combination layout with conditions. The DMSO dilutions were further diluted […] into cell culture medium (IMDM, supplemented with 20% (v/v) fetal bovine serum, and 50 μg/mL gentamicin) in an intermediate dilution plate. Finally, 10 μL taken from the intermediate dilution plate were transferred to 140 μL of cells and medium per well of the final assay plate. Thus, the DMSO dilutions used for the mono- and the combination-treatment were diluted 1:660, and the DMSO concentration in the assay was […].
(§3) Tumors were passaged as subcutaneous xenografts in NMRI nu/nu mice. At a tumor volume of 400 to 1000 mm^3, tumor-bearing mice were euthanized, and tumors were collected under sterile conditions without delay. Tumors were mechanically disaggregated and subsequently incubated with an enzyme cocktail consisting of collagenase type IV (41 U/mL), DNase I (125 U/mL), hyaluronidase type III (100 U/mL), and dispase II (1 U/mL) in RPMI 1640 medium at 37° C. for 60 to 120 minutes. Cells were passed through sieves of 100 μm and 40 μm mesh size, and washed with RPMI 1640 medium. The percentage of viable cells was determined in a Neubauer-hemocytometer using trypan blue exclusion. Aliquots of the cells were frozen down and stored in liquid nitrogen vapor phase. On each day of an experiment, a frozen aliquot of tumor cells was thawed and used for preparation of assay plates.
(§4) The clonogenic assay was carried out in a 96 well plate format using ultra low attachment plates. For each test, plates were prepared as follows: each test well contained a layer of semi-solid medium with tumor cells (50 μL), and a second layer of medium supernatant with or without test compound (100 μL). The cell layer consisted of […] to 12.5×10^3 tumor cells per well, which were seeded in 50 μL/well cell culture medium (IMDM, supplemented with 20% (v/v) fetal bovine serum, 50 μg/mL gentamicin, and 0.4% (w/v) agar). After 24 hours, the soft-agar layer was covered with 90 μL of the same culture medium without agar, and 10 μL of control medium or test compound after serial dilution in DMSO for the duration of the experiment (continuous exposure, 100 μL drug overlay).

[2] = system: PAXF2131 organoid, Pancreatic cancer; test: 3D clonogenic assay in patient derived organoids; type: cell-based, human
Experimental: as §1, §2, §3, §4

[3] = system: MAXFTN2990 organoid, breast cancer (triple negative); test: 3D clonogenic assay in patient derived organoids; type: cell-based, human
Experimental: as §1, §2, §3, §4

[4] = system: CXF2061 organoid, colon cancer; test: 3D clonogenic assay in patient derived organoids; type: cell-based, human
Experimental: as §1, §2, §3, §4

[5] = system: CXF2129 organoid, colon cancer; test: 3D clonogenic assay in patient derived organoids; type: cell-based, human
Experimental: as §1, §2, §3, §4

[6] = system: CXF1256 organoid, colon cancer; test: 3D clonogenic assay in patient derived organoids; type: cell-based, human
Experimental: as §1, §2, §3, §4

[7] = system: MAXFTN449 organoid, breast cancer (triple negative); test: 3D clonogenic assay in patient derived organoids; type: cell-based, human
Experimental: as §1, §2, §3, §4

HT29 cell line = test: 2D cell line viability assay (cell confluence); type: cell-based; conditions: Homo sapiens, HT-29, 96 h, 4 days
Description: (§5) FIGS. 4A-4E illustrate the effects of Compound 1 on the Potency of Paclitaxel in a 2D Cell Line Viability Assay. […] Data points indicate mean and Standard Deviation of 2 biological replicates. Graphs are representative of at least 2 independent experiments. […] Abbreviations: DMSO, dimethylsulfoxide.

A549 cell line = test: 2D cell line viability assay (cell confluence); type: cell-based; conditions: Homo sapiens, A549, 96 h, 4 days
Description: as §5

NCI-H460 cell line = test: 2D cell line viability assay (cell confluence); type: cell-based; conditions: Homo sapiens, NCI-H460, 96 h, 4 days
Description: as §5

[8] = system: Five tumor cell lines (4T1.2, A549, EMT6, NCI-H460, and HT29)
Experimental: as §1

4T1.2 cell line = test: 2D cell line viability assay (cell confluence); type: cell-based, murine; conditions: Mus musculus, 4T1.2, 96 h
Description: as §5

EMT6 cell line = test: 2D cell line viability assay (cell confluence); type: cell-based, murine; conditions: Mus musculus, EMT6, 96 h, 4 days
Description: as §5

[9] = chemotherapy dose titration + 5 μM Compound 1 vs chemotherapy alone
[10] = chemotherapy dose titration + 20 μM Compound 1 vs chemotherapy alone
[11] = in the presence of 5 μM Compound 1
[12] = in the presence of 20 μM Compound 1

With `O=c1[nH]cc(F)c(=O)[nH]1` [Compound 5-FU, 5-Fluorouracil] as the compound, how does the “Combination activity 5 μM Compound 1 (cAUC % reduction)” value [1, 9] read?
The value was 32%.

What about the “Combination activity 20 μM Compound 1 (cAUC % reduction)” value [1, 10] of the same compound?
The value was 32%.

What about the “Combination activity 5 μM Compound 1 (cAUC % reduction)” value [2, 9] of the same compound?
The value was 52%.

What about the “Combination activity 20 μM Compound 1 (cAUC % reduction)” value [2, 10] of the same compound?
The value was 67%.

And the “Combination activity 5 μM Compound 1 (cAUC % reduction)” value [3, 9]?
The value was −25%.

And the “Combination activity 20 μM Compound 1 (cAUC % reduction)” value [3, 10]?
The value was 8%.

And the “Combination activity 5 μM Compound 1 (cAUC % reduction)” value [4, 9]?
The value was 25%.

What about the “Combination activity 20 μM Compound 1 (cAUC % reduction)” value [4, 10] of the same compound?
The value was 18%.

What about the “Combination activity 5 μM Compound 1 (cAUC % reduction)” value [5, 9] of the same compound?
The value was 42%.

And the “Combination activity 20 μM Compound 1 (cAUC % reduction)” value [5, 10]?
The value was 31%.

What about the “Combination activity 5 μM Compound 1 (cAUC % reduction)” value [6, 9] of the same compound?
Its value is 78%.

What about the “Combination activity 20 μM Compound 1 (cAUC % reduction)” value [6, 10] of the same compound?
Its value is 79%.

What about the “Combination activity 5 μM Compound 1 (cAUC % reduction)” value [7, 9] of the same compound?
The value was 29%.

And the “Combination activity 20 μM Compound 1 (cAUC % reduction)” value [7, 10]?
Its value is 14%.

And the EC50 (HT29 cell line; in the absence of Compound 1)?
Its EC50 is 2500 nM.

And the EC50 (HT29 cell line; [11])?
The EC50 was 2500 nM.

What about the EC50 (HT29 cell line; [12]) of the same compound?
The EC50 was 1600 nM.

And the EC50 (A549 cell line; in the absence of Compound 1)?
The EC50 was 2400 nM.

What about the EC50 (A549 cell line; [11]) of the same compound?
The EC50 was 2600 nM.

What about the EC50 (A549 cell line; [12]) of the same compound?
Its EC50 is 1500 nM.

And the EC50 (NCI-H460 cell line; in the absence of Compound 1)?
The EC50 was 2600 nM.

And the EC50 (NCI-H460 cell line; [11])?
The EC50 was 1600 nM.

And the EC50 (NCI-H460 cell line; [12])?
The EC50 was 1700 nM.

And the “potency of 5-FU in the presence of Compound 1 relative to 5-FU potency in the absence of Compound 1” value [8]?
Its value is at most 2 fold.

And the EC50 (4T1.2 cell line; 4 days after treatment, in the absence of Compound 1)?
The EC50 was 570 nM.

And the EC50 (4T1.2 cell line; 4 days, in the presence of 5 μM Compound 1)?
The EC50 was 500 nM.

What about the EC50 (4T1.2 cell line; 4 days, in the presence of 20 μM Compound 1) of the same compound?
Its EC50 is 490 nM.

And the EC50 (EMT6 cell line; in the absence of Compound 1)?
The EC50 was 2700 nM.

What about the EC50 (EMT6 cell line; [11]) of the same compound?
Its EC50 is 2500 nM.

What about the EC50 (EMT6 cell line; [12]) of the same compound?
Its EC50 is 2600 nM.
